Measurements taken from patent US4390523A, “Sorbose for inhibiting fermentation acids in the mouth” (priority 1972, dated 1983).
Values joined by “and” are separate entries in the source; they are usually repeats but may differ in a detail not shown here. Equal entries are not always repeated. “Also recorded” adds a separate entry of the source.

Key:
man = experiment: Hypersorbemia produced in man; format: in vivo; conditions: 1 gram per kg, empty stomach, in one lot
Procedure: To complete the tests concerned with animals, tests were carried out for hypersorbemia produced in man (ingestion on an empty stomach in one lot of a dose of sorbose equivalent to 1 gram per kg of weight).

[1] = rat, in vivo, po
Procedure: (§4) This test was carried on for four weeks and three months. Each morning, 1 milliliter per 100 grams of body weight of a sorbose solute in water containing 0.330 g/ml was administered orally to each of the animals.
(§5) The examinations of the blood comprised the following:
(§6) determination of the true glycemia (glucose-oxydase dosage),
(§7) determination of the ionemia (chlorides-phosphates-bicarbonates-sodium-potassium), azotemia, proteinemia, albuminemia, calcemia, cholesterolemia, uricemia and creatinemia, the total bilirubinemia and the levels of the alkaline phosphatases, the creatine-phosphokinases and the glutamino-oxaloacetic transaminases (these determinations were effected with the aid of a Technicon SM A 6+SM A 12 autoanalyzer).
(§8) These biological tests were carried out first on animals fed normally and then on the same animals in the course of the following weeks during which sorbose was being administered as a supplement to the food ration, as hereinbefore described.

[2] = tested on: male rats of the WISTAR type; experiment: Acute toxicity and lethalness of sorbose in rats; format: in vivo, WISTAR rat; conditions: rats
Procedure: (§1) The toxicity of sorbose has been studied in a first series of tests.
(§2) The test animals were ROCKFELLER mice and WISTAR rats.
(§3) Thus, solutes of sorbose (concentrations used: 615, 700, 900, 1000 and 1100 mg per ml) were administered orally, intravenously and intraperitoneally in different doses and concentrations to male mice of the ROCKFELLER type and to male rats of the WISTAR type.

[3] = Acute toxicity and lethalness of sorbose in rats; format: in vivo, WISTAR rat; conditions: rat, in vivo, ip; intraperitoneal; WISTAR rats; Karber and Behrens method; read-out: lethal dose 50 (LD50)
Procedure: as §1, §2, §3

[4] = tested on: male mice of the ROCKFELLER type; experiment: Acute toxicity and lethalness of sorbose in mice; format: in vivo, ROCKFELLER mouse; conditions: mice
Procedure: as §1, §2, §3

[5] = Acute toxicity and lethalness of sorbose in mice; format: in vivo, ROCKFELLER mouse; conditions: mouse, in vivo, ip; intraperitoneal; ROCKFELLER mice; Karber and Behrens method; read-out: lethal dose 50 (LD50)
Procedure: as §1, §2, §3

[6] = tested on: viscera: stomach, small intestine, large intestine, liver, kidneys and pancreas; experiment: Anatomical and histopathological observations at the end of the tests; format: in vivo, WISTAR rat
Source text: At the end of the tests the animals were put to death so that anatomical and histopathological observations could be made.

[7] = tested on: ROCKFELLER mice and WISTAR rats; experiment: Overall toxicity and tolerance tests of sorbose in mice and rats; format: in vivo, mouse; rat
Source text: as §1, §2

[8] = tested on: oral bacteria (dilute human saliva); experiment: Formation of acids and lowering of pH by fermentation by oral bacteria (Table III); format: cell-based; conditions: for pH of medium / NaOH necessary for neutralization: 1 ml of 18% solution in 10 ml medium; for pH of medium: saliva, 37° C.; for NaOH necessary for neutralization: N/40 NaOH
Procedure: A series of tubes containing 10 ml of a sugarless nutritive culture medium at pH 7 was prepared. These tubes were sterilized by passing them through an autoclave at 120° C. for 20 minutes.
1 ml of sterile water was introduced into a first series of five tubes to make a control series.
1 ml of a sterile 18% solution of dextrose (weight/volume=W/V) was introduced into a second series of five tubes.
1 ml of a sterile 18% solution of saccharose (W/V) was introduced into a third series of five tubes.
1 ml of a sterile 18% solution of sorbose (W/V) was introduced into a fourth series of five tubes.
The sterile solutions of dextrose, saccharose and sorbose were obtained by sterilizing filtration by the usual technique.
A dilution of human saliva was prepared for immediate use and four tubes of each series were inoculated with the same volume of dilute saliva.
The formation of acids was followed by electric measurement of the pH and by determination of the quantity of acids formed; this determination was effected with a N/40 sodium/hydroxide solution, phenolphthalein being used as a neutralization indicator; a first determination was made before incubation, the following four determinations after incubations of 3, 6, 10 and 24 hours, respectively, at 37° C.
The results are assembled in Table III (pH value and value of the number of ml of sodium hydroxide necessary for neutralization).

[9] = Urinary biological parameters before and during oral administration of sorbose (Table I); format: in vivo, WISTAR rat
Procedure: In the course of this experiment, detailed biological examinations concerning the urine and blood were carried out.
The urine examinations comprised the following: determination of the reducing power (copper-neocuproin method), determination of the true glycosuria (glucose-oxydase method), determination of the proteinuria, measurement of the urinary pH, determination of the urinary ionogram relating to the chlorine ions, sodium and potassium.

[10] = Chromatographic examination of the urine of animals ingesting sorbose; format: in vivo, WISTAR rat
Procedure: Thus, sorbose was administered orally to rats of the WISTAR type, as a supplement to the usual food ration, in a dose of 0.330 grams per 100 grams of body weight; such a dose would correspond to a daily intake of 198 grams of sorbose in a 60 kg person. This test was carried on for four weeks and three months. Each morning, 1 milliliter per 100 grams of body weight of a sorbose solute in water containing 0.330 g/ml was administered orally to each of the animals.

[11] = cited from earlier work
[12] = Biological parameters of blood before and during oral administration of sorbose (Table II); conditions: WISTAR rats, oral ingestion
Procedure: as §4, §5, §6, §7, §8

[13] = Clinical observation and weight development during oral administration of sorbose (food value); format: in vivo, WISTAR rat; conditions: 0.330 g per 100 g of body weight orally
Source text: The food value of sorbose has been studied in a second series of tests.

[14] = prolonged administration orally and in high doses
[15] = 330 mg/100 g oral, a = first week, rats 1-6
[16] = 330 mg/100 g oral, b = fifth week, rats 1-6
[17] = 330 mg/100 g oral, c = thirteenth week, rats 1-6

Compound: O=C(CO)[C@H](O)[C@@H](O)[C@H](O)CO [sorbose]
- tolerance in man (man): well tolerated
- total reducing power of the blood in man (man): heightening of the total reducing power of the blood, which disappeared in a few hours
- true glycemia in man (man): did not produce any variation in the true glycemia
- serobiogram (conclusion) [1]: does not modify the serobiogram
- total reducing power of the serum (conclusion) [1]: does not modify the value of the true glycemia or that of the total reducing power of the serum
- dose at which no lethalness was observed ([2]; intravenously): 5.5 grams per kg of body weight
- dose at which no lethalness was observed ([2]; orally): 11 grams per kg of body weight
- LD50 [3]: 12800 mg/kg
- dose at which no lethalness was observed ([4]; intravenously): 10 grams per kg of body weight
- dose at which no lethalness was observed ([4]; orally): 27.5 grams per kg of body weight
- LD50 [5]: 13600 mg/kg
- anatomical anomaly of the viscera [6]: no anatomical anomaly was found
- histopathological change of structure of the organs [6]: did not enable any histopathological change of structure of the organs examined to be detected
- toxicity (acute, subacute and chronic) ([7]; ROCKFELLER mice and WISTAR rats): devoid of acute, subacute and chronic toxicity; also recorded: absence of acute toxicity
- clinical and biological tolerance [7, 14]: tolerated perfectly on the clinical and biological planes
- histologically detectable visceral lesion [7, 14]: does not result in any histologically detectable visceral lesion
- pH of medium ([8]; 0 hours): 7.0
- NaOH necessary for neutralization ([8]; 0 hours): 2.50 mL
- pH of medium ([8]; 3 hours): 6.80
- NaOH necessary for neutralization ([8]; 3 hours): 2.25 mL
- pH of medium ([8]; 6 hours): 6.90
- NaOH necessary for neutralization ([8]; 6 hours): 2.20 mL
- pH of medium ([8]; 10 hours): 6.80
- NaOH necessary for neutralization ([8]; 10 hours): 1.90 mL
- pH of medium ([8]; 24 hours): 6.80
- NaOH necessary for neutralization ([8]; 24 hours): 1.90 mL
- formation of acids / acidification (conclusion) ([8]; medium inoculated with dilute saliva): does not give rise to the formation of acids or to a lowering of the pH; also recorded: does not lead, by fermentation by bacteria of the mouth, to the production of fermentation acids or to a lowering of the pH; also recorded: no formation of acids or lowering of the pH; also recorded: does not give rise to the formation of acids by oral bacteria
- cariogenicity (conclusion) ([8]; oral bacteria): non-cariogenic
- physiological proteinuria (conclusion) ([9]; 330 mg/100 g oral, 13 weeks): does not lead to a significant modification of the physiological proteinuria
- reducing power in the urine (conclusion) ([9]; 330 mg/100 g oral, 13 weeks): causes the appearance of the reducing power in the urine
- urinary ionogram (conclusion) ([9]; 330 mg/100 g oral, 13 weeks): does not modify the urinary ionogram
- urinary pH (conclusion) ([9]; 330 mg/100 g oral, 13 weeks): does not modify the urinary pH
- urinary potassium [9, 15]: 1.10 meq/24 h and 1.03 meq/24 h and 1.68 meq/24 h and 1.26 meq/24 h and 1.48 meq/24 h and 1 meq/24 h
- urinary total reducing power [9, 15]: 56 mg/24 h and 30 mg/24 h and 39 mg/24 h and 38 mg/24 h and 35 mg/24 h and 28 mg/24 h
- urinary chlorides [9, 16]: 1.27 meq/24 h and 0.90 meq/24 h and 1.11 meq/24 h and 1.56 meq/24 h and 1.00 meq/24 h and 1.46 meq/24 h
- urinary pH [9, 16]: 8.5 and 8.2 and 9.2 and 9.1
- urinary chlorides [9, 17]: 0.92 meq/24 h and 0.79 meq/24 h and 0.70 meq/24 h and 0.90 meq/24 h and 1.08 meq/24 h and 0.76 meq/24 h
- urinary pH [9, 17]: 9 and 8.5 and 8.8 and 9.1
- urinary potassium [9, 17]: 1.19 meq/24 h and 0.99 meq/24 h and 1.20 meq/24 h and 1.26 meq/24 h and 1.08 meq/24 h
- urinary sodium [9, 17]: 0.39 meq/24 h and 0.34 meq/24 h and 0.54 meq/24 h and 0.45 meq/24 h and 0.46 meq/24 h and 0.61 meq/24 h
- urinary total reducing power [9, 17]: 36 mg/24 h and 31 mg/24 h and 32 mg/24 h and 41 mg/24 h
- glycosuria ([9]; during oral administration, 330 mg/100 g, 13 weeks): No glycosuria was detected; also recorded: does not result in true glycosuria
- glucose and sorbose in the urine by chromatographic examination [10]: absence of glucose and the presence of sorbose
- solubility in alcohol [11]: not very soluble in alcohol
- solubility in water [11]: rather soluble in water
- tolerance (conclusion from the biological analyses) [12]: tolerated perfectly
- clinically detectable anomalies ([13]; four weeks and three months): no clinically detectable anomalies were observed
- weight development ([13]; versus control animals): comparable to that observed in control animals
